The series in a line: Solubility of the isolated vandaterosides. The class given is physicochemical.

Take `O=C(/C=C/c1ccccc1)O[C@H]1[C@H](OC(CC(=O)OCc2ccc(O[C@@H]3O[C@H](CO)[C@@H](O)[C@H](O)[C@H]3O)cc2)(Cc2ccc(O)cc2)C(=O)OCc2ccc(O[C@@H]3O[C@H](CO)[C@@H](O)[C@H](O)[C@H]3O)cc2)O[C@H](CO)[C@@H](O)[C@@H]1O` (stereo partly drawn) [VT3, 14-bis(4-β-D-glucopyranosyloxybenzyl)-(2R)-2-(2-β-D-glucopyranosyl-3-trans-cinnamoyl ester)-2-(p-hydroxybenzyl)malate]: the “Solubility in MeOH and DMSO” value (MeOH, DMSO) is reported as “soluble”. The Solubility in water entry (water) is reported as “low solubility”.

These data come from US9012414B2, “Cosmetic composition” (Guerlain, priority 2010, dated 2015).
